# Experimental data reported in PubChem BioAssay (NCI).
#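 Values below derive from 48-hour exposures of cells grown in 96-well plates, with endpoints linearly interpolated between the two concentrations bracketing the appropriate inhibition level. Abbreviation: GI50, concentration required for 50% inhibition of growth. TGI is the concentration that stops growth completely.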
# Columns and labels:
# Assay in all cases: NCI-60 cell line screen, 48 h
# PC-3 prostate = test system: PC-3 prostate
# NCI-H23 lung = test system: NCI-H23 lung
# TK-10 renal = test system: TK-10 renal
# A498 renal = test system: A498 renal
# U251 CNS = test system: U251 CNS
# OVCAR-8 ovarian = test system: OVCAR-8 ovarian
# IGROV1 ovarian = test system: IGROV1 ovarian
# SF-268 CNS = test system: SF-268 CNS
# HCT-116 colon = test system: HCT-116 colon
# HS 578T breast = test system: HS 578T breast
Compound,GI50 (PC-3 prostate) [µM],TGI (PC-3 prostate) [µM],GI50 (NCI-H23 lung) [µM],TGI (NCI-H23 lung) [µM],GI50 (TK-10 renal) [µM],TGI (TK-10 renal) [µM],TGI (A498 renal) [µM],TGI (U251 CNS) [µM],TGI (OVCAR-8 ovarian) [µM],TGI (IGROV1 ovarian) [µM],TGI (SF-268 CNS) [µM],TGI (HCT-116 colon) [µM],TGI (HS 578T breast) [µM],GI50 (A498 renal) [µM],GI50 (U251 CNS) [µM],GI50 (OVCAR-8 ovarian) [µM],GI50 (IGROV1 ovarian) [µM],GI50 (SF-268 CNS) [µM],GI50 (HS 578T breast) [µM],GI50 (HCT-116 colon) [µM]
CC(CNc1nc(Nc2ccc(Cl)c(Cl)c2)nc(C(Cl)(Cl)Cl)n1)N(C)C (stereo not drawn),1.76,3.84,1.63,3.38,1.77,3.27,–,–,–,–,–,–,–,–,–,–,–,–,–,–
C/C=C1/C(=O)O[C@]23C=C[C@@H]4C(C(=O)OC)=CO[C@H](O[C@@H]12)[C@@H]43,–,–,–,3.51,–,–,1.58,5.9,11.4,4.88,5.62,1.97,–,–,–,–,–,–,–,–
Cc1ccc(C(=O)N/N=C(\N=Nc2ccccc2)c2ccc(N(CCC#N)CCC#N)cc2C)cc1,–,> 100,–,> 100,–,> 100,> 100,> 100,> 100,> 100,61.7,–,> 100,–,–,–,–,–,–,–
O=C1NC(=O)C2(CCc3ccc(N(CCCl)CCCl)cc32)N1 (stereo not drawn),–,–,–,26.2,–,–,33.1,33,36.2,34.6,73.5,31.7,–,–,–,–,–,–,–,–
CC(=O)Nc1nc(C)c(-c2cc3c(c(S(C)(=O)=O)c2)C(=O)N([C@@H](C)C2CC2)C3)s1,31.2,> 100,31.1,> 100,20.7,75.4,53.5,> 100,> 100,> 100,> 100,> 100,64.2,19,29.5,39.4,27.2,20.4,18.4,28.3
COc1ccc(/C=C/C(=O)/C=C(/C=C/c2ccc(OC)c(OC)c2OC)OB(F)F)c(OC)c1OC,2.82,> 100,–,–,9.03,> 100,10.2,8.09,> 100,> 100,> 100,3.33,–,3.35,0.973,1.16,1.89,2.93,–,0.399
COc1ccc(-c2c(C#N)cnc(N)c2-c2nc3cc(C)c(C)cc3[nH]2)cc1,8.86,> 100,5.37,33.3,5.94,26.4,63.6,12.7,26.8,> 100,65.7,> 100,> 100,10.7,3.65,5.2,16,9.8,5.87,4.63
CC1CC(c2ccc([N+](=O)[O-])cc2)=Nc2ccccc2S1=O (stereo not drawn),–,–,–,37.2,–,91.6,43.2,27.7,32.9,31.8,44.1,4.72,–,–,–,–,–,–,–,–
CC(=O)O[C@@H]1CN(S(=O)(=O)c2ccc(C)cc2)C[C@@H]1C1CCCCC1,–,46.4,–,> 100,–,41.4,55.1,37.2,69.6,38.6,52.5,–,23.7,–,–,–,–,–,–,–
COc1ccc2oc3c(ccc[n+]3C)c(=O)c2c1,–,> 100,–,> 100,–,> 100,> 100,> 100,> 100,> 100,> 100,> 100,> 100,–,–,–,–,–,–,–
COc1cc2c(cc1O)N=C[C@@H]1CCC(O)N1C2=O (mixture of isomers),–,–,–,4.38,–,–,0.928,1.71,10,75.5,6.25,34,–,–,–,–,–,–,–,–
CCc1ncc(C(C)(O)c2ccccc2)n1Cc1ccccc1 (stereo not drawn),–,> 100,–,> 100,–,> 100,–,> 100,> 100,> 100,> 100,11,> 100,–,–,–,–,–,–,–
